This is an account of results in US10457677B2 (priority 2015, dated 2019).

Where two headings read alike, the source gives them in different places.

Test [1] concerns the target purified human recombinant ATM (ataxia telangiectasia mutated), full length (Homo sapiens (Human), UniProt Q13315). In words: ATM kinase assay - determination of ATM inhibition (IC50 ATM), TR-FRET. Format: biochemical. The method in brief: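 Full-length enzyme, expressed in a mammalian cell line, pre-incubated 15 min with inhibitor in 25 mM HEPES pH 8.0, 10 mM Mg(CH3COO)2, 1 mM MnCl2, 0,1% BSA, 0,01% Brij 35, 5 mM DTT. Full-length cmyc-p53 (Sf21-expressed) and ATP then added, 30-35 min at 22° C. EDTA stop; p53 S15 phosphorylation read by TR-FRET antibodies.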

For another test, the target named is PI3K p110α/p85α (human) (Homo sapiens (Human), UniProt P42336). The experiment in a line: PI3K p110α/p85α (human), non-radioactive assay (HTRF). Conditions: read-out: IC50 (PI3Kalpha). Format: biochemical. On the technique in general: TR-FRET usually uses a lanthanide donor and a delayed reading to cut background.
For another test, the target named is PI3K p110β/p85α (human) (Homo sapiens (Human), UniProt P42338). The experiment in a line: PI3K p110β/p85α (human), non-radioactive assay (HTRF). Format: biochemical. The settings on record: read-out: IC50 (PI3Kbeta). The method, boiled down:
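Human p110β/p85α incubated with 10 μM phosphatidylinositol 4,5-bisphosphate and MgATP for 30 min at room temperature, stopped with EDTA plus biotinylated PIP3. HTRF detection used a Eu-anti-GST antibody, GST-GRP1 PH domain and streptavidin-APC, with signal taken as 10000×(Em665nm/Em620nm).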

A further test addresses PI3K p110δ/p85α (human) (Homo sapiens (Human), UniProt O00329). The experiment in a line: PI3K p110δ/p85α (human), non-radioactive assay (HTRF). Format: biochemical. The settings on record: read-out: IC50 (PI3Kdelta).
The subject of test [2] is phosphorylation of CHK2 (phospho-Thr68) in HCT116 cells. In words: Cellular pCHK2 assay: bleomycin-induced phosphorylation of CHK2 (phospho-Thr68), immunofluorescence high-content analysis. The test is classed as cell-based, human. Conditions: Homo sapiens, HCT-116, 4 h, read-out: IC50 (pCHK2). The method in brief:
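HCT116 cells in DMEM with 10% FCS, incubated overnight at 37° C, then given compounds (1 nM to 30 μM, 0.5% DMSO) together with 10 μM bleomycin. Phospho-Thr68 CHK2 immunostained and imaged by high-content imager; nuclei with pCHK2 above background counted, cell count from propidium iodide DNA stain.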

The next test addresses mTOR (human) (Homo sapiens (Human), UniProt P42345). The experiment in a line: mTOR (human) kinase assay, [γ-33P-ATP] filter assay. The test is classed as biochemical. The method, boiled down: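 Radiometric filter assay: enzyme in 50 mM HEPES pH 7.5, 1 mM EGTA, 0.01% Tween 20, 3 mM MnCl2, 2 mg/ml substrate with [γ-33P-ATP], started with MgATP. Incubated 40 min at room temperature, stopped with 3% phosphoric acid; incorporation measured on P30 filtermat by scintillation counting.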

The target of another test is PI3K (p120γ) (human) (Homo sapiens (Human), UniProt P48736). The experiment in a line: PI3K (p120γ) (human), non-radioactive assay (HTRF). The test is classed as biochemical. Conditions: read-out: IC50 (PI3Kgamma). The method in brief: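 Enzyme was run with 10 μM phosphatidylinositol 4,5-bisphosphate, starting the reaction with MgATP at an unspecified level, for 30 min at room temperature. The stop used EDTA plus biotinylated PIP3, and detection used Eu-anti-GST, GST-GRP1 PH domain and streptavidin-APC. Signal was taken as HTRF = 10000×(Em665nm/Em620nm).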
Sequence of PI3K (p120γ) (human) (P48736 whole entry, the tested form may be a part): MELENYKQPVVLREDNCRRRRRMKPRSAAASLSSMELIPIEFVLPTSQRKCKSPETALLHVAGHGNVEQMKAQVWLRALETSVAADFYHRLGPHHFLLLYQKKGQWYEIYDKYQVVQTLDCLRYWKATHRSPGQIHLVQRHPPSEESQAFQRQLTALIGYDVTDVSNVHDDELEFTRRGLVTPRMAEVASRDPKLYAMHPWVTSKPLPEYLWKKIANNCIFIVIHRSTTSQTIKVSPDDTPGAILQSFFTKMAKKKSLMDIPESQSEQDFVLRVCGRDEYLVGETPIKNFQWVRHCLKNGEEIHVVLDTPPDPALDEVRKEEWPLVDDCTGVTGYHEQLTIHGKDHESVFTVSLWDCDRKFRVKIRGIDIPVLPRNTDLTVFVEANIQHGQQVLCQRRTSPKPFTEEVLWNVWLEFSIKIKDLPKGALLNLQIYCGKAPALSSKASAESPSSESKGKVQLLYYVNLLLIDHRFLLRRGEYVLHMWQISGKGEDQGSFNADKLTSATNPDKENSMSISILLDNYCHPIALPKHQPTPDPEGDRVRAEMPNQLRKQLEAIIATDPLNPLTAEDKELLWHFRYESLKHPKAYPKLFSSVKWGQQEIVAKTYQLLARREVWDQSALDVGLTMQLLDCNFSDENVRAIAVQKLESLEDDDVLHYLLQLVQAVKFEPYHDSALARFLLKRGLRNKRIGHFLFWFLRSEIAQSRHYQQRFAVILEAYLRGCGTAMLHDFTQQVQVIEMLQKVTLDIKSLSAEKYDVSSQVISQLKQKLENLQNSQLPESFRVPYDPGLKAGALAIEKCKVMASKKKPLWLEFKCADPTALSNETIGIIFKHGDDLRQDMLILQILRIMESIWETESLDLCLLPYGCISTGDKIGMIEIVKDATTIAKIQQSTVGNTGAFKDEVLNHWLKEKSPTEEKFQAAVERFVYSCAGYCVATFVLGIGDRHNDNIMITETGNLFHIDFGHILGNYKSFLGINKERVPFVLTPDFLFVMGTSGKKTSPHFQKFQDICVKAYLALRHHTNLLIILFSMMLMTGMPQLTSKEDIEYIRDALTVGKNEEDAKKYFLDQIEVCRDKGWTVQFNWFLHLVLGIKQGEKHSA

Sequence of PI3K p110β/p85α (human) (P42338 whole entry, the tested form may be a part): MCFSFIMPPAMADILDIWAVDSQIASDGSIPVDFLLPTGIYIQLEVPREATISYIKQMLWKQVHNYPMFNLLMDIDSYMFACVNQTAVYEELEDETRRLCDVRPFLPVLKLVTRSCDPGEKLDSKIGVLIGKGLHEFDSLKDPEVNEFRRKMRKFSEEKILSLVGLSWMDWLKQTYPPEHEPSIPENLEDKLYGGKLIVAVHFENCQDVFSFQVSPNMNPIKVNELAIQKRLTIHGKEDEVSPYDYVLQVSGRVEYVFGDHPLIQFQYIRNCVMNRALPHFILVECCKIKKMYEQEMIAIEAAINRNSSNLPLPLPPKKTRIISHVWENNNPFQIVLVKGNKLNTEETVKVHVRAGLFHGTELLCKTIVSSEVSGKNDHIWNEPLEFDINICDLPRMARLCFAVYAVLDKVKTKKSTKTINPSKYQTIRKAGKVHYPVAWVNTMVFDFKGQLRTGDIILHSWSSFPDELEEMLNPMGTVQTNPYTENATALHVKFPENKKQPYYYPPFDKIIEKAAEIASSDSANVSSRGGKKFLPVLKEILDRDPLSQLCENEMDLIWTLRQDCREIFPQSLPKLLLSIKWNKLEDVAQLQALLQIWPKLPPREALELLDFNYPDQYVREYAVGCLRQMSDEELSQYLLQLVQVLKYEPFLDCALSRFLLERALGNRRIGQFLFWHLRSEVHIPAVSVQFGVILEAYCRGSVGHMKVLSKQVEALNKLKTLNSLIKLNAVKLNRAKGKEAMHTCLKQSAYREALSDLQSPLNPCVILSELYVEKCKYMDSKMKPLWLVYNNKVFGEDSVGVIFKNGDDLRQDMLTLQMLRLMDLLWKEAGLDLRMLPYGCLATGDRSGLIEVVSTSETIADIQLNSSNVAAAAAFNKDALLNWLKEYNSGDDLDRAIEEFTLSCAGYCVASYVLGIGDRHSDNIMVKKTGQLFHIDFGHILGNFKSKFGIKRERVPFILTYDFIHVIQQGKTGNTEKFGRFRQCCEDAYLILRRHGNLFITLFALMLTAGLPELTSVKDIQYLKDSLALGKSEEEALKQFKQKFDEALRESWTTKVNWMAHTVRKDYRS
Sequence of PI3K p110β/p85α (human) (P27986 whole entry partner, the tested form may be a part): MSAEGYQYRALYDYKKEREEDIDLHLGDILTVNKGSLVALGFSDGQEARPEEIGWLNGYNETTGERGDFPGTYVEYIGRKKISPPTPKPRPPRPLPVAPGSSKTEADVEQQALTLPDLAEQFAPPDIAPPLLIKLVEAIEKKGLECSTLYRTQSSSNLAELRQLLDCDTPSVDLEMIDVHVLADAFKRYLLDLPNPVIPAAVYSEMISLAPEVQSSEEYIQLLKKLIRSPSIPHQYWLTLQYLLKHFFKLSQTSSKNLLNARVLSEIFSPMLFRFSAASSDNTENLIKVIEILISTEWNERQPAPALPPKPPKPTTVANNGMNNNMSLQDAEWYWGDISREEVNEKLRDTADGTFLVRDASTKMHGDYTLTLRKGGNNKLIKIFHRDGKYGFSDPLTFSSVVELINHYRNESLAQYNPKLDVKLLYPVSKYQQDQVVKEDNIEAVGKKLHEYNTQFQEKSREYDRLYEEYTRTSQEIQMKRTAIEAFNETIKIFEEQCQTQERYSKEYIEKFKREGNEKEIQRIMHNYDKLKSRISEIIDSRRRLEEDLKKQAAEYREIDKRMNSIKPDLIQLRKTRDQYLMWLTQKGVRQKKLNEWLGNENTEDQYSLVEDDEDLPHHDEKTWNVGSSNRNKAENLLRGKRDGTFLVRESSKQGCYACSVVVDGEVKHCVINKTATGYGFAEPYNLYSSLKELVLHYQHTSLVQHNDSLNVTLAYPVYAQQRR
Sequence of PI3K p110δ/p85α (human) (O00329 whole entry): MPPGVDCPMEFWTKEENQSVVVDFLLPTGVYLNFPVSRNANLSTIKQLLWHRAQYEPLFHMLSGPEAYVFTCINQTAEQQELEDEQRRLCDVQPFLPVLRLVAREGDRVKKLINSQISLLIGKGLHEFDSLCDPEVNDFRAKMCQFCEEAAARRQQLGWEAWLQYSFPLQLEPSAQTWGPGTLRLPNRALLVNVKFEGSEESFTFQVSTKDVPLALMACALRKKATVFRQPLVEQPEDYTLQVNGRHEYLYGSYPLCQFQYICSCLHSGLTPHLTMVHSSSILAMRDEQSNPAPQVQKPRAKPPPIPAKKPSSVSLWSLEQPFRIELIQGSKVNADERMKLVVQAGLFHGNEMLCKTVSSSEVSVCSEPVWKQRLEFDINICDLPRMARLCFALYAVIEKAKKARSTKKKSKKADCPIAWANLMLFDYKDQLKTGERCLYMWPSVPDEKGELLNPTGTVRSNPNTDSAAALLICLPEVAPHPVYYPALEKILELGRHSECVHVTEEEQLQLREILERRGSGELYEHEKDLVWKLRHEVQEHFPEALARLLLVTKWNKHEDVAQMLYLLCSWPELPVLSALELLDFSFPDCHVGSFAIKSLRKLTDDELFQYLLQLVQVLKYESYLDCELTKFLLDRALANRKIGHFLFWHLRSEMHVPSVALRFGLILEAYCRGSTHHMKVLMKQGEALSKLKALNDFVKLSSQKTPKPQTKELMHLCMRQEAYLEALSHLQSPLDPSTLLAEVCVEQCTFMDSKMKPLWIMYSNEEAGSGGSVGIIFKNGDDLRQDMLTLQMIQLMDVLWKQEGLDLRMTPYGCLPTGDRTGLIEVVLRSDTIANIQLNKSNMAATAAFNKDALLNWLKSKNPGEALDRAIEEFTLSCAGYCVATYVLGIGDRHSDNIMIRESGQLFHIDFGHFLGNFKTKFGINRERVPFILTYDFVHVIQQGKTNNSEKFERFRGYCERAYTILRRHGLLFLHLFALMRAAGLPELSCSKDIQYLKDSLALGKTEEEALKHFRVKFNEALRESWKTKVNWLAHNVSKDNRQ
Sequence of PI3K p110δ/p85α (human) (P27986 whole entry partner): as the sequence (P27986 whole entry partner, the tested form may be a part) above
Sequence of PI3K p110α/p85α (human) (P42336 whole entry): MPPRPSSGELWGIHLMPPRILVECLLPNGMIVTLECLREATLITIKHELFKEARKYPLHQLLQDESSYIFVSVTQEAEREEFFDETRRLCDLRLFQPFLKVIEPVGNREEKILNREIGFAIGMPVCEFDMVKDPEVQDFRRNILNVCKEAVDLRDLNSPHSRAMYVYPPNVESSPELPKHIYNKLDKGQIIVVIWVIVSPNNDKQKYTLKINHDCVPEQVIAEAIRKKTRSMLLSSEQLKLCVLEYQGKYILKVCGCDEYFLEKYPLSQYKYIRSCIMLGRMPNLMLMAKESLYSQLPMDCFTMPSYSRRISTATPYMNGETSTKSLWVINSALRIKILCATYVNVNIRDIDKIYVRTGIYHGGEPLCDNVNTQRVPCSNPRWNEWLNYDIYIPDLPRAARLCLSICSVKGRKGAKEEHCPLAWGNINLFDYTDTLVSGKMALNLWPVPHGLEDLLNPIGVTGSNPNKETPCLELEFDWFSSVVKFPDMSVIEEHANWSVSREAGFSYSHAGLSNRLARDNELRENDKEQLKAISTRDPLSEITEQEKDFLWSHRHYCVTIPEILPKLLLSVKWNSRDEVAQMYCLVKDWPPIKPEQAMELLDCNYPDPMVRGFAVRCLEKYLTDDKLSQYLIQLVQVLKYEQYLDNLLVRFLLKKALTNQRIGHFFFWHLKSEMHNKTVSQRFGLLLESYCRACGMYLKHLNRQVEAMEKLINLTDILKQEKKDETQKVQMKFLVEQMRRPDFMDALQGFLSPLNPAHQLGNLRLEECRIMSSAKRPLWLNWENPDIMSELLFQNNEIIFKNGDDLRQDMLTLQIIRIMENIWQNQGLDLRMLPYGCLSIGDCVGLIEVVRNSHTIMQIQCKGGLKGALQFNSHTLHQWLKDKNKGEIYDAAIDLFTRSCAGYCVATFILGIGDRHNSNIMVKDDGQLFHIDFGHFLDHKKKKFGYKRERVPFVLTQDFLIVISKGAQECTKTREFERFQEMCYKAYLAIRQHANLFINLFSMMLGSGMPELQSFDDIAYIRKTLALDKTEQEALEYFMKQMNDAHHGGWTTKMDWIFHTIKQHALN
Sequence of PI3K p110α/p85α (human) (P27986 whole entry partner): as the sequence (P27986 whole entry partner, the tested form may be a part) above

Take `COc1cc2ncc3c(c2cc1-c1cnn(C)c1)n(-c1ccncc1)c(=O)n3C` [compound 58, 7-Methoxy-3-methyl-8-(1-methyl-1H-pyrazol-4-yl)-1-pyridin-4-yl-1,3-dihydro-imidazo[4,5-c]quinolin-2-one]: the IC50 in test [1] is < 0.01 µM; in test [1] (10 μM ATP, substrate p53) it was < 0.01 µM; on PI3K p110α/p85α (human), > 30 µM; at PI3K p110β/p85α (human), > 30 µM; on PI3K p110δ/p85α (human) it was > 30 µM; in test [2] it was 0.2 to 1 µM. The IC50 against mTOR (human) and at PI3K (p120γ) (human) was > 30 µM in each case.
For `COc1cc2ncc3c(c2cc1-c1cnn(C)c1)n(-c1cn(C)cn1)c(=O)n3C` [compound 59, 7-Methoxy-3-methyl-1-(1-methyl-1H-imidazol-4-yl)-8-(1-methyl-1H-pyrazol-4-yl)-1,3-dihydroimidazo[4,5-c] quinolin-2-one], the IC50 was < 0.01 µM in test [1]; < 0.01 µM in test [1] (10 μM ATP, substrate p53); > 30 µM on PI3K p110α/p85α (human); > 30 µM at PI3K p110β/p85α (human); > 30 µM on PI3K p110δ/p85α (human); 1 to 2 µM in test [2]. In addition, the IC50 at mTOR (human) and at PI3K (p120γ) (human) was > 30 µM each time.
Take `COc1cc2ncc3c(c2cc1-c1cnn(C)c1)n(-c1ccncc1Cl)c(=O)n3C` [compound 60, 1-(3-Chloropyridin-4-yl)-7-methoxy-3-methyl-8-(1-methyl-1H-pyrazol-4-yl)-1,3-dihydroimidazo[4,5-c] quinolin-2-one]: the IC50 in test [1] was < 0.01 µM; in test [1] (10 μM ATP, substrate p53) it was < 0.01 µM; on PI3K p110α/p85α (human), > 30 µM; on PI3K p110β/p85α (human), > 30 µM; on PI3K p110δ/p85α (human), > 30 µM; in test [2], 1 to 2 µM. The IC50 against mTOR (human) and on PI3K (p120γ) (human) was > 30 µM throughout.
For the compound `CCn1cc(-c2cc3c(cc2OC)ncc2c3n(-c3ccncc3)c(=O)n2C)cn1` [compound 62, 8-(1-Ethyl-1H-pyrazol-4-yl)-7-methoxy-3-methyl-1-pyridin-4-yl-1,3-dihydro-imidazo[4,5-c]quinolin-2-one], the IC50 in test [1] is < 0.01 µM; in test [1] (10 μM ATP, substrate p53), < 0.01 µM; at PI3K p110α/p85α (human), > 30 µM; on PI3K p110β/p85α (human), > 30 µM; at PI3K p110δ/p85α (human), > 30 µM; in test [2], 1 to 2 µM. The IC50 against mTOR (human) and on PI3K (p120γ) (human) was > 30 µM throughout.
